Measurements published in US20240293412A1, “NAMPT ACTIVATORS FOR TREATING METABOLIC AND NEUROLOGICAL DISORDERS” (The Board of Trustees of the University of Illinois, priority 2021, published 2024).

Legend:
NAMPT = NAMPT (Homo sapiens (Human), UniProt P43490); assay: NAMPT coupled enzyme activity assay; type: biochemical; details: NAMPT activation, Table 2; for Emax: read-out: Maximum activation (%)
THP-1 cells = assay: cells; details: Homo sapiens, THP-1, 24 h; for Emax: read-out: Maximum activation (%)

NAMPT, sequence (P43490 whole entry): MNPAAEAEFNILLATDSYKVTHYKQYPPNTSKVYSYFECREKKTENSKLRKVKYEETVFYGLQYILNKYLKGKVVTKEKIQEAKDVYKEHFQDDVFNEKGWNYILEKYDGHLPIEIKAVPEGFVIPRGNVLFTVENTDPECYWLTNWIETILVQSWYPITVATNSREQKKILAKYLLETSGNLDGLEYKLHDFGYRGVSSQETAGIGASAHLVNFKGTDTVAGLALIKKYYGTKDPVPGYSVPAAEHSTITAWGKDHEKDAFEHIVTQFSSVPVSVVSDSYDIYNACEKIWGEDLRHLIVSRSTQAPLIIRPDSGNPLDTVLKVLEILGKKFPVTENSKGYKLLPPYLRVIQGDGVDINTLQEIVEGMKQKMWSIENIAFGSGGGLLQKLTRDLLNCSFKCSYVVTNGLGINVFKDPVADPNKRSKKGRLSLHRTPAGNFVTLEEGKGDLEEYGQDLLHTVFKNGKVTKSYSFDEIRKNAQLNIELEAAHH

Row | SMILES | EC50 (NAMPT) [µM] | Emax (NAMPT) [%] | EC50 (THP-1 cells) [µM] | Emax (THP-1 cells) [%]
1 | Cc1ccc(-n2cc3c(N4CCCC(C(=O)NCc5cc[nH]n5)C4)ncnc3n2)cc1 (stereo not drawn) | > 10 | – | – | –
2 | CSc1ccc(CNC(=O)C2CCN(c3ncnc4nn(-c5ccc(C)cc5)cc34)CC2)cc1 | 9.4 | 240 | – | –
3 | O=C(NCc1ccc2sccc2c1)[C@H]1CCCN(c2ncnc3nn(-c4ccc(C(F)(F)F)cc4)cc23)C1 | – | – | 0.74 | 150

Continued, in another order:

Row | EC50 (NAMPT) [µM] | Emax (NAMPT) [%] | EC50 (THP-1 cells) [µM] | SMILES | Emax (THP-1 cells) [%]
4 | 0.16 | 186 | – | Cc1ccc(-n2cc3c(N4CCCC(C(=O)NCc5ccc(N(C)C)cc5)C4)ncnc3n2)cc1 (stereo not drawn) | –
5 | – | – | 3.2 | CSc1ccc(CNC(=O)[C@H]2CCCN(c3ncnc4nn(-c5ccc(C)cc5)cc34)C2)cc1 | 202
